Assay results published in patent publication US4446129A, “Method for treatment of arthrosis deformans with elastase” (Eisai Co., Ltd., priority 1982, dated 1984).
Where “and” joins values, the source holds several entries; their conditions need not be identical. Equal values may be shown once. Entries after “also recorded” stand apart in the source; their conditions may differ.

Key:
[1] = test system: elastase; settings: cited from earlier work
[2] = test system: Wistar strain female and male rats; assay: Subacute toxicity, rats; type: in vivo, rat; settings: oral, 750, 7,500 and 37,500 or 75,000 EL. U/kg/day for 4 weeks
From the text: (§1) Elastase was orally administered to Wistar strain female and male rats at dosages of 750, 7,500 and 37,500 or 75,000 EL. U/kg/day for 4 weeks, and to female and male beagle dogs at dosages of 900 or 4,500 EL. U/kg/day for 12 weeks.

[3] = test system: female and male beagle dogs; assay: Subacute toxicity, dogs; type: in vivo, dog; settings: oral, 900 or 4,500 EL. U/kg/day for 12 weeks
From the text: as §1

[4] = test system: Wistar strain female and male rats; assay: Chronic toxicity, rats; type: in vivo, rat; settings: oral, 2,250, 5,700, 11,250 or 22,500 EL. U/kg/day for 24 weeks
From the text: Elastase was orally administered to Wistar strain female and male rats at dosages of 2,250, 5,700, 11,250 or 22,500 EL. U/kg/day for 24 weeks.

[5] = test system: pregnant mice; assay: Teratogenicity, mice; type: in vivo, mouse; settings: oral, 750, 7,500 or 75,000 EL. U/kg/day, 6 days
From the text: (§2) Elastase was forcibly orally administered to pregnant mice and rats in the stage of organogenesis at dosages of 750, 7,500 or 75,000 EL. U/kg/day for 6 consecutive days. As a result, death, hindrance to growth and teratogenesis of the embryos were not observed, and there was no effect upon the morphological and functional differentiation of the newborn animals.

[6] = test system: pregnant rats; assay: Teratogenicity, rats; type: in vivo, rat; settings: oral, 750, 7,500 or 75,000 EL. U/kg/day, 6 days
From the text: as §2

[7] = test system: gonarthralgia; assay: Clinical examples: effectiveness against gonarthralgia; type: in vivo, human
From the text: (§3) The subjects included 18 patients (men 6 cases, women 12 cases, ages 57 to 88, average 70.9±8.2 years old) that were diagnosed negative as to rheumatoid arthrosis and were clinically diagnosed as suffering from gonarthrosis deformans. […] The distribution of the duration of gonarthralgia in the patients from the onset thereof was such that six cases fell into each of the periods of (1) three years or shorter, (2) four to five years, and (3) five years or longer.
(§4) The effectiveness of elastase against gonarthrosis deformans was evaluated by administering capsules containing 1,800 EL.U elastase at a daily dosage of 3 capsules per day to each patient for 8 weeks, and investigating the severity of gonarthralgia before administration, 4 weeks after administration, and 8 weeks after administration.
(§5) However, these patients had received and continued to receive during the test period antihypertensive agents, agents for improving cerebral circulation and other drugs for the treatment of their underlying diseases. However, the levels of these drugs in the patients' bodies remained unchanged from the day 8 weeks before the start of the test up to the last day of the test. During the tests, no patient received any other antiinflammatory, analgesic or steroid having the possible effect of palliation of arthralgia.

[8] = test system: other types of arthralgia; assay: Clinical examples: effectiveness against other types of arthralgia and symptoms; type: in vivo, human
From the text: as §3, §4, §5

[9] = test system: human patients; assay: Clinical examples: side effects; type: in vivo; settings: for resolution of epigastric discomfort: after 4 weeks
From the text: as §3, §4, §5

[10] = Absorption, blood concentration and fate of elastase after oral administration; type: in vivo
[11] = porcine elastase; cited from earlier work
[12] = test system: lipoprotein; settings: cited from earlier work
[13] = test system: lipid metabolism in the serum and tissues; arterial walls; settings: cited from earlier work
[14] = duration 3 years or shorter, 4 w
[15] = duration 3 years or shorter, 8 w
[16] = duration 5 years or longer, 4 w
[17] = duration 5 years or longer, 8 w
[18] = individual patient case (one line per case No. 1-18), 3 capsules of 1,800 EL.U per day
[19] = individual patient case (Table 2)

## [Cl-].[Na+] [NaCl]
[1]
  inhibition of elastase activity: inhibited

## elastase: enzyme which specifically decomposes elastin, a water-insoluble scleroprotein; industrially produced by extraction from swine pancreas
[2]
  Subacute toxicity: general physical condition, blood and urinary tests, morphological observations: no noteworthy anomalous findings
[3]
  Subacute toxicity: general physical condition, blood and urinary tests, morphological observations: no noteworthy anomalous findings
[4]
  Chronic toxicity: general physical condition, blood and urinary tests, morphological observations: no anomalous findings
[5]
  effect upon morphological and functional differentiation of the newborn animals: no effect
[5]; organogenesis
  death, hindrance to growth and teratogenesis of the embryos: not observed
[6]
  effect upon morphological and functional differentiation of the newborn animals: no effect
[6]; organogenesis
  death, hindrance to growth and teratogenesis of the embryos: not observed
[7]; 4 to 5 year group
  "ineffective" result, number: one
[7]; 5 years or longer group
  "ineffective" result, number: one
[7]; Case 4, Case 8, Case 16, Case 13
  result (case history): markedly effective; also recorded: ineffective (when there was no effect)
[7]; Case 9
  pain in knee joints when administration was discontinued: worsened
[7]; Case 9, restarted at beginning of third week
  gonarthralgia after restart of administration: palliation of gonarthralgia
[7]; Case 13, after either 4 weeks or 8 weeks
  improvement, case history: no improvement was recognized
[7]; Case 16, after 4 weeks
  difficulty with Japanese dancing, case history: disappeared
[7]; after 4 weeks, Case 4, Case 8, Case 16
  knee pain, case history: completely cleared up; also recorded: disappeared entirely
[7]; all of these cases
  gonarthralgia in cases with other symptoms: palliated or cleared up
[7]; [14]
  aggravated, number of cases: 0
  effective, number of cases: 3
  ineffective, number of cases: 0
  markedly effective, number of cases: 3
  rate of effectiveness: 100%
  rate of effectiveness (cases/total): 6/6
[7]; [15]
  aggravated, number of cases: 0
  effective, number of cases: 3
  ineffective, number of cases: 0
  markedly effective, number of cases: 3
  rate of effectiveness: 100%
  rate of effectiveness (cases/total): 6/6
[7]; duration 4 to 5 years, 4 w
  aggravated, number of cases: 0
  effective, number of cases: 3
  ineffective, number of cases: 1
  markedly effective, number of cases: 2
  rate of effectiveness: 83.3%
  rate of effectiveness (cases/total): 5/6
[7]; duration 4 to 5 years, 8 w
  aggravated, number of cases: 0
  effective, number of cases: 2
  ineffective, number of cases: 1
  markedly effective, number of cases: 3
  rate of effectiveness: 83.3%
  rate of effectiveness (cases/total): 5/6
[7]; [16]
  aggravated, number of cases: 0
  effective, number of cases: 4
  ineffective, number of cases: 1
  markedly effective, number of cases: 1
  rate of effectiveness: 83.3%
  rate of effectiveness (cases/total): 5/6
[7]; [17]
  aggravated, number of cases: 0
  effective, number of cases: 3
  ineffective, number of cases: 1
  markedly effective, number of cases: 2
  rate of effectiveness: 83.3%
  rate of effectiveness (cases/total): 5/6
[7]; duration greater than 5 years
  cases with gonarthralgia completely cleared up, number: two
[7]; entire group of 18 patients
  overall rate of improvement: 88.9%
[7]; entire group of patients
  patients with distinct palliation or complete clearing of gonarthralgia, number: sixteen
  results of "aggravated": no results of "aggravated"
  results of "ineffective", number: two
[7]; [18]
  Effect on arthralgia after 4 w.: + (effective) and ++ and - (ineffective)
  Effect on arthralgia after 8 w.: + (effective) and ++ and - (ineffective)
[7]; most of the patients, during term of administration, not informed of relation
  persistent gonarthralgia: considerably palliated or completely cleared up
[7]; overall
  results of "markedly effective", 8 weeks compared with 4 weeks: somewhat higher after the 8 week period
[7]; overall, 4 w
  rate of effectiveness: 88.9%
  rate of effectiveness (cases/total): 16/18
[7]; overall, 4 w, 18 cases
  effective, number of cases: 10
  markedly effective, number of cases: 6
[7]; overall, 8 w
  rate of effectiveness (cases/total): 16/18
  rate of effectiveness / overall rate of improvement: 88.9%
[7]; overall, after 4 weeks
  rate of "effective": 55.6%
  rate of "ineffective": 11.1%
  rate of "markedly effective": 33.3%
[7]; overall, after 8 weeks
  rate of "aggravated": 0%
  rate of "effective": 44.4% and 44.48%
  rate of "ineffective": 11.1%
  rate of "markedly effective": 44.4% and 44.48%
[7]; patients who showed improvement, after start of administration
  onset of perceived palliation or clearing of arthralgia: at the beginning of the second week
[8]; Case 4, after 4 weeks
  morning stiffness in the fingers: cleared up
[8]; Case 5, during the term of administration
  lumbago: cleared up
[8]; Case 6, during the term of administration
  cinesalgia in the left shoulder (periarthritis): No change
[8]; Cases 10 and 15
  anomalies of sensation in fingers: not cleared up
[8]; [19]
  Miscellaneous: morning stiffness in hands cleared; also recorded: carpal tunnel syndrome not changed; also recorded: dancing eliminated
  Miscellaneous: lumbago: cleared; also recorded: lumbago lasting
[9]; 3 cases (conclusions)
  discontinuation of administration in cases with epigastric discomfort: not discontinued in any of these cases
[9]; 18 patients, 8 weeks
  epigastric discomfort, number of cases: 3
  epigastric discomfort, rate: 16.7%
[9]; Case 9 (Table 2)
  Miscellaneous: discontinuation and restart: administration discontinued after 2 w; also recorded: restarted because of worsened arthralgia
[9]; Case 9, administration restarted
  resolution of epigastric discomfort: cleared up after 4 weeks
[9]; Case 9, at the beginning of the second week
  discontinuation of administration because of epigastric discomfort: discontinued at the beginning of the second week
[9]; Cases 3, 6 and 9, one to two weeks after administration began
  epigastric discomfort: suffered from epigastric discomfort for several days
[9]; Cases 3 and 6
  resolution of epigastric discomfort: disappeared after 4 weeks
[9]; all cases
  nausea, vomiting, exanthema or the like: In none of the cases
[9]; [19]
  Side effect (transient epigastric discomfort): transient
[10]; after (oral) administration
  time of maximum concentration of elastase in the blood: 6 h
[10]; in the blood
  combination with blood proteins: combines with α2 -macroglobulin and α1 -antitrypsin
[10]; oral
  area under the blood concentration curve versus dosage: increases in proportion to the dosage
  distribution: distributed widely over all of the body tissues
  excretion: excreted into the urine
  metabolism: metabolized chiefly in the liver
[11]
  isoelectric point: 9.5±0.5 pH
[1]; N-α-benzoyl-L-alanine methyl ester as substrate
  optimal activation pH, particularly: about 8.8
[1]; N-α-benzoyl-L-alanine methyl ester as substrate, range
  optimal activation pH: 8 to 10
[1]; porcine elastase
  decomposition of N-α-benzoyl-L-alanine methyl ester, acetyl-L-trialanine-p-nitroanilide and elastin: specifically decomposing
[12]
  β-lipoproteinase activity and lipoprotein lipase activity: confirmed
[13]; arterial walls
  removal of denatured elastin, formation of fresh elastin, fat deposition, atherosclerosis: functions to remove denatured elastin from arterial walls and to promote formation of fresh elastin
[13]; in vivo
  effect on disturbance of lipid metabolism in the serum and tissues: normalizing effect
  elasticity and dilatability of arterial walls: maintains and promotes

## [Cl-].[K+] [KCl]
[1]
  inhibition of elastase activity: inhibited

## O=S(=O)([O-])[O-].[Cu+2] [CuSO4]
[1]
  inhibition of elastase activity: inhibited

## N.N.O=S(=O)(O)O [(NH4)2 SO4]
[1]
  inhibition of elastase activity: inhibited
